This is an account of results in ChEMBL document CHEMBL5236593, “Design, synthesis and biological evaluation studies of novel anti-fibrosis agents bearing sulfoxide moiety” (2022).

The source made the active and inactive calls. The rule behind the calls is not given here.

The test system of experiment [1] is HRMC. Kind of experiment: Anti-fibrotic activity in human HRMC cells assessed as downregulation of COL16A1 mRNA expression at 1 uM pretreated with compound for 30 mins followed by TGF-beta stimulation and measured after 24 hrs by qRT-PCR analysis. It is filed as functional, cell-based. Particulars: time 24.5 hrs. (Quantitative PCR measures a nucleic acid by following its amplification.)

The test system of experiment [2] is Mus musculus. Kind of experiment: Anti-fibrotic activity against CCl4-induced liver fibrosis C57BL/6 mouse model assessed as reduction in liver bridging fibrosis at 250 mg/kg, ig administered for 27 days with first injection started at 24 hrs post-first CCl4 challenge and measured at 48 hrs post-last administration by Masson's trichrome staining based analysis. Particulars: time 29.0 day. It is filed as functional, organism-based.

The test system of experiment [3] is LX-2. Nature of the experiment: Anti-fibrotic activity in human LX2 cells assessed as downregulation of ACTA2 mRNA expression at 0.1 to 1 uM pretreated with compound for 30 mins followed by TGF-beta stimulation and measured after 24 hrs by qRT-PCR analysis. It is filed as functional, cell-based. The note with it: dose 0.1-1 µM, time 24.5 hrs.
In experiment [4] the test system is LX-2. Nature of the experiment: Anti-fibrotic activity in human LX2 cells assessed as downregulation of CTGF mRNA expression at 0.1 to 1 uM pretreated with compound for 30 mins followed by TGF-beta stimulation and measured after 24 hrs by qRT-PCR analysis. Particulars: dose 0.1-1 µM, time 24.5 hrs. It is filed as functional, cell-based.
Experiment [5] is described as follows: Anti-fibrotic activity in human NHCF-V cells assessed as downregulation of CTGF mRNA expression at 0.1 to 1 uM pretreated with compound for 30 mins followed by TGF-beta stimulation and measured after 24 hrs by qRT-PCR analysis. It is filed as functional. The note with it: dose 0.1-1 µM, time 24.5 hrs.
Experiment [6] is described as follows: Anti-fibrotic activity in human NHCF-V cells assessed as downregulation of ACTA2 mRNA expression at 0.1 to 1 uM pretreated with compound for 30 mins followed by TGF-beta stimulation and measured after 24 hrs by qRT-PCR analysis. It is filed as functional. Particulars: dose 0.1-1 µM, time 24.5 hrs.
A short description of experiment [7]: Anti-fibrotic activity in human NHCF-V cells assessed as downregulation of PAI-1 mRNA expression at 0.1 to 1 uM pretreated with compound for 30 mins followed by TGF-beta stimulation and measured after 24 hrs by qRT-PCR analysis. It is filed as functional. Particulars: dose 0.1-1 µM, time 24.5 hrs.
For experiment [8], the system named is HRMC. Kind of experiment: Anti-fibrotic activity in human HRMC cells assessed as downregulation of COL4A1 mRNA expression at 1 uM pretreated with compound for 30 mins followed by TGF-beta stimulation and measured after 24 hrs by qRT-PCR analysis. It is filed as functional, cell-based. The note with it: time 24.5 hrs.
In experiment [9] the test system is HRMC. Nature of the experiment: Anti-fibrotic activity in human HRMC cells assessed as downregulation of CTGF mRNA expression at 1 uM pretreated with compound for 30 mins followed by TGF-beta stimulation and measured after 24 hrs by qRT-PCR analysis. It is filed as functional, cell-based. The note with it: time 24.5 hrs.
The test system of experiment [10] is HRMC. Kind of experiment: Anti-fibrotic activity in human HRMC cells assessed as downregulation of IL11 mRNA expression at 1 uM pretreated with compound for 30 mins followed by TGF-beta stimulation and measured after 24 hrs by qRT-PCR analysis. Particulars: time 24.5 hrs. It is filed as functional, cell-based.
The subject of experiment [11] is Mus musculus. Kind of experiment: Anti-fibrotic activity against CCl4-induced liver fibrosis C57BL/6 mouse model assessed as reduction in liver bridging fibrosis at 200 mg/kg, ig administered for 27 days with first injection started at 24 hrs post-first CCl4 challenge and measured at 48 hrs post-last administration by Masson's trichrome staining based analysis. It is filed as functional, organism-based. The note with it: time 29.0 day.

Experiment [12] relates to Mus musculus. Nature of the experiment: Anti-fibrotic activity against CCl4-induced liver fibrosis C57BL/6 mouse model assessed as reduction in serum ALT level at 200 mg/kg, ig administered for 27 days with first injection started at 24 hrs post-first CCl4 challenge and measured at 48 hrs post-last administration. The note with it: time 29.0 day. It is filed as functional, organism-based.

Experiment [13] deals with Mus musculus. Kind of experiment: Anti-fibrotic activity against CCl4-induced liver fibrosis C57BL/6 mouse model assessed as reduction in serum TBIL level at 200 mg/kg, ig administered for 27 days with first injection started at 24 hrs post-first CCl4 challenge and measured at 48 hrs post-last administration. It is filed as functional, organism-based. Particulars: time 29.0 day.

The test system of experiment [14] is Mus musculus. Kind of experiment: Anti-fibrotic activity against CCl4-induced liver fibrosis C57BL/6 mouse model assessed as reduction in serum IBIL level at 200 mg/kg, ig administered for 27 days with first injection started at 24 hrs post-first CCl4 challenge and measured at 48 hrs post-last administration. It is filed as functional, organism-based. The note with it: time 29.0 day.

The subject of experiment [15] is Mus musculus. Nature of the experiment: Anti-fibrotic activity against CCl4-induced liver fibrosis C57BL/6 mouse model assessed as reduction in serum hydroxyproline content at 200 mg/kg, ig administered for 27 days with first injection started at 24 hrs post-first CCl4 challenge and measured at 48 hrs post-last administration. It is filed as functional, organism-based. Particulars: time 29.0 day.

Experiment [16] deals with Mus musculus. Nature of the experiment: Anti-fibrotic activity against BLM-induced pulmonary fibrosis C57BL/6 mouse model assessed as reduction in lung inflammation at 200 mg/kg administered via gavage for 13 days with first injection started at 24 hrs post-first BLM challenge and measured after 24 hrs by H and E staining based microscopic analysis. The note with it: time 14.0 day. It is filed as functional, organism-based.

Experiment [17] has as its system Mus musculus. Kind of experiment: Anti-fibrotic activity against BLM-induced pulmonary fibrosis C57BL/6 mouse model assessed as reduction in area of lung fibrosis at 200 mg/kg administered via gavage for 13 days with first injection started at 24 hrs post-first BLM challenge and measured after 24 hrs by H and E staining based microscopic analysis. It is filed as functional, organism-based. Particulars: time 14.0 day.

Experiment [18] has as its system Mus musculus. Nature of the experiment: Anti-fibrotic activity against BLM-induced pulmonary fibrosis C57BL/6 mouse model assessed as reduction in lung inflammation at 200 mg/kg administered via gavage for 13 days with first injection started at 24 hrs post-first BLM challenge and measured after 24 hrs by Masson's trichrome staining based analysis. It is filed as functional, organism-based. The note with it: time 14.0 day.

The test system of experiment [19] is Mus musculus. Kind of experiment: Anti-fibrotic activity against BLM-induced pulmonary fibrosis C57BL/6 mouse model assessed as reduction in area of lung fibrosis at 200 mg/kg administered via gavage for 13 days with first injection started at 24 hrs post-first BLM challenge and measured after 24 hrs by Masson's trichrome staining based analysis. It is filed as functional, organism-based. Particulars: time 14.0 day.

Experiment [20] concerns Mus musculus. Nature of the experiment: Anti-fibrotic activity against BLM-induced pulmonary fibrosis C57BL/6 mouse model assessed as reduction in lung fibrosis at 200 mg/kg administered via gavage for 13 days with first injection started at 24 hrs post-first BLM challenge and measured after 24 hrs by Ashcroft score based analysis. It is filed as functional, organism-based. Particulars: time 14.0 day.

For experiment [21], the system named is Mus musculus. Nature of the experiment: Anti-fibrotic activity against BLM-induced pulmonary fibrosis C57BL/6 mouse model assessed as reduction in hydroxyproline content in lungs at 200 mg/kg administered via gavage for 13 days with first injection started at 24 hrs post-first BLM challenge and measured after 24 hrs. It is filed as functional, organism-based. Particulars: time 14.0 day.

Experiment [22] deals with NHCF-V. Kind of experiment: Anti-fibrotic activity in human NHCF-V cells assessed as downregulation of PAI-1 mRNA expression at 1 uM pretreated with compound for 30 mins followed by TGF-beta stimulation and measured after 24 hrs by qRT-PCR analysis. The note with it: time 24.5 hrs. It is filed as functional, cell-based.
Experiment [23] concerns LX-2. Nature of the experiment: Anti-fibrotic activity in human LX2 cells assessed as downregulation of ACTA2 mRNA expression at 1 uM pretreated with compound for 30 mins followed by TGF-beta stimulation and measured after 24 hrs by qRT-PCR analysis. It is filed as functional, cell-based. Particulars: time 24.5 hrs.
Experiment [24] has as its system LX-2. Nature of the experiment: Anti-fibrotic activity in human LX2 cells assessed as downregulation of COL1A1 mRNA expression at 1 uM pretreated with compound for 30 mins followed by TGF-beta stimulation and measured after 24 hrs by qRT-PCR analysis. It is filed as functional, cell-based. Particulars: time 24.5 hrs.
Experiment [25] deals with LX-2. Kind of experiment: Anti-fibrotic activity in human LX2 cells assessed as downregulation of CTGF mRNA expression at 1 uM pretreated with compound for 30 mins followed by TGF-beta stimulation and measured after 24 hrs by qRT-PCR analysis. The note with it: time 24.5 hrs. It is filed as functional, cell-based.
Experiment [26] has as its system LX-2. Kind of experiment: Anti-fibrotic activity in human LX2 cells assessed as downregulation of PAI-1 mRNA expression at 1 uM pretreated with compound for 30 mins followed by TGF-beta stimulation and measured after 24 hrs by qRT-PCR analysis. It is filed as functional, cell-based. Particulars: time 24.5 hrs.
Experiment [27] deals with NHCF-V. Kind of experiment: Anti-fibrotic activity in human NHCF-V cells assessed as downregulation of TGF-beta1 mRNA expression at 1 uM pretreated with compound for 30 mins followed by TGF-beta stimulation and measured after 24 hrs by qRT-PCR analysis. It is filed as functional, cell-based. Particulars: time 24.5 hrs.
Experiment [28] has as its system NHCF-V. Nature of the experiment: Anti-fibrotic activity in human NHCF-V cells assessed as downregulation of ACTA2 mRNA expression at 1 uM pretreated with compound for 30 mins followed by TGF-beta stimulation and measured after 24 hrs by qRT-PCR analysis. The note with it: time 24.5 hrs. It is filed as functional, cell-based.
The subject of experiment [29] is NHCF-V. Nature of the experiment: Anti-fibrotic activity in human NHCF-V cells assessed as downregulation of CTGF mRNA expression at 1 uM pretreated with compound for 30 mins followed by TGF-beta stimulation and measured after 24 hrs by qRT-PCR analysis. It is filed as functional, cell-based. The note with it: time 24.5 hrs.

`CC1(C[S+]([O-])c2cccc(F)c2)COC1` (centres undefined): the result in the experiment on HRMC [1] was Active.

As to `Cc1ccc(=O)n(-c2ccccc2)c1`, the result in the experiment on Mus musculus [2] was Active.

As for `CC1(C[S+]([O-])Cc2ccccc2)COC1` (centres undefined), the outcome in the experiment with LX-2 [3], in the experiment on LX-2 [4], in the experiment on Mus musculus [11], in the experiment with Mus musculus [12], with Mus musculus [13] and with Mus musculus [14] was Active. Besides, the outcome with Mus musculus [15], in the experiment with Mus musculus [16], with Mus musculus [17], in the experiment on Mus musculus [18], in the experiment on Mus musculus [19] and in the experiment on Mus musculus [20] was Active. The result with Mus musculus [21] was Active. For the same molecule, the “inhibition (INH)” value in experiment [5], in experiment [6] and in experiment [7] was less than 30% in each case. Besides, the outcome with HRMC [1], in the experiment on HRMC [8], in the experiment on HRMC [9] and in the experiment with HRMC [10] was inactive.

In the case of `CCC1(C[S+]([O-])c2cccc(F)c2)COC1` (centres undefined), in the experiment on NHCF-V [22], the result was Active.

In the case of `NC(=O)C[S+]([O-])c1cccc(F)c1` (centres undefined), the outcome in the experiment with HRMC [1], in the experiment on HRMC [8], in the experiment on HRMC [9], in the experiment with HRMC [10], in the experiment on LX-2 [23] and in the experiment with LX-2 [24] was inactive. Moreover, the outcome with LX-2 [25], in the experiment on LX-2 [26], in the experiment on NHCF-V [27], in the experiment with NHCF-V [28], in the experiment with NHCF-V [29] and in the experiment on NHCF-V [22] was inactive.

`CC1(C[S+]([O-])c2ccccc2)COC1` (centres undefined): the result in the experiment on HRMC [1], in the experiment with HRMC [8], in the experiment on HRMC [9], with HRMC [10], in the experiment on LX-2 [23] and in the experiment with LX-2 [24] was inactive. The outcome in the experiment with LX-2 [25], in the experiment with LX-2 [26], in the experiment with NHCF-V [27], in the experiment on NHCF-V [28], in the experiment with NHCF-V [29] and in the experiment on NHCF-V [22] was inactive. Besides, the outcome with Mus musculus [11] was inactive. For the same molecule, the outcome in the experiment on Mus musculus [12], with Mus musculus [13], in the experiment with Mus musculus [14] and with Mus musculus [20] was Active.

`NC(=O)C[S+]([O-])Cc1ccccc1` (centres undefined): the outcome with HRMC [1], in the experiment with HRMC [8], in the experiment with HRMC [9], in the experiment with HRMC [10], in the experiment on LX-2 [23] and with LX-2 [24] was inactive. Moreover, the result in the experiment on LX-2 [25], with LX-2 [26], in the experiment with NHCF-V [27], in the experiment on NHCF-V [28], in the experiment on NHCF-V [29] and in the experiment with NHCF-V [22] was inactive.
